Laboratory results from ChEMBL document CHEMBL3988442, “University of Dundee, Small-Polar-MMV Screening Library” (2021).
Where “and” joins values, the source holds several entries; their conditions need not be identical. Equal entries are not always repeated.

Assays:
[1] = target: Chromo domain-containing protein 1 (Saccharomyces cerevisiae (strain ATCC 204508 / S288c) (Baker's yeast), UniProt P32657); assay: ScCHD-1 Enzyme Inhibition Assay; assay type: functional
Schistosoma mansoni = assay: High throughput screening of compounds against Schistosoma mansoni motility; assay type: functional; parameters: dose or concentration left out as unconfirmed
ClpP1P2 = ClpP1P2 (Mycobacterium tuberculosis (strain ATCC 25618 / H37Rv), UniProt P9WPC3+P9WPC5); assay: in vitro assay to detect presence of AMC directly proportional to the activity of ClpP1P2. GHDDI collaboration.; assay type: functional
Tryptophan--tRNA ligase = Tryptophan--tRNA ligase (Mycobacterium tuberculosis (strain ATCC 25618 / H37Rv), UniProt P9WFT3); assay: Biochemical assay for Mt-TrpRS; assay type: functional
[2] = microbe, parasite or virus in culture; conditions: Mycobacterium tuberculosis, 72 h, read-out: pIC50 (converted)
Wolbachia pipientis = assay: Anti-Wolbachia Cell-Based Screen; assay type: functional
[3] = microbe, parasite or virus in culture; conditions: Mycobacterium tuberculosis, 96 h, read-out: pIC50 (converted)
[4] = target: Sialic acid-binding Ig-like lectin 9 (Homo sapiens, UniProt Q9Y336); assay: Hs-Siglec9 ALPHAscreen SOP 20170721
Histidine--tRNA ligase = target: T1, Histidine--tRNA ligase (Leishmania infantum, UniProt A4I591); assay: Leishmania infantum Histidine tRNA synthetase (LdHisRS); assay type: functional
T1 sequence (A4I591 whole entry): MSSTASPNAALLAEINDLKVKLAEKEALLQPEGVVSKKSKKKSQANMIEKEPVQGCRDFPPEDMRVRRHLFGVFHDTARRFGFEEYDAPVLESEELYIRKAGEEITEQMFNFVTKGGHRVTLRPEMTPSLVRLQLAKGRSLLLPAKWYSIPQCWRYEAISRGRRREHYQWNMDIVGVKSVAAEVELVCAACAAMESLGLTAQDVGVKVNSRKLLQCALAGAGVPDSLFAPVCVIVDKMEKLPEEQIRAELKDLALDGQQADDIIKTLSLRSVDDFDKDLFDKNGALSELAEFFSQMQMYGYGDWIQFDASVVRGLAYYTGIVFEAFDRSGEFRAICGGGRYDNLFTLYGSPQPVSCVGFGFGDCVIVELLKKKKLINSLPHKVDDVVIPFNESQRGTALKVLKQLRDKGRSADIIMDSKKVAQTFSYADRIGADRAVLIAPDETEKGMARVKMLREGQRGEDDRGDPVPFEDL

[5] = target: T2, Coenzyme A biosynthesis bifunctional protein CoaBC (Mycobacterium tuberculosis (strain ATCC 25618 / H37Rv), UniProt P9WNZ1); assay: Biomol Green assay for MtCoaBC inhibitor, OD650 read; assay type: functional
T2 sequence (P9WNZ1 whole entry): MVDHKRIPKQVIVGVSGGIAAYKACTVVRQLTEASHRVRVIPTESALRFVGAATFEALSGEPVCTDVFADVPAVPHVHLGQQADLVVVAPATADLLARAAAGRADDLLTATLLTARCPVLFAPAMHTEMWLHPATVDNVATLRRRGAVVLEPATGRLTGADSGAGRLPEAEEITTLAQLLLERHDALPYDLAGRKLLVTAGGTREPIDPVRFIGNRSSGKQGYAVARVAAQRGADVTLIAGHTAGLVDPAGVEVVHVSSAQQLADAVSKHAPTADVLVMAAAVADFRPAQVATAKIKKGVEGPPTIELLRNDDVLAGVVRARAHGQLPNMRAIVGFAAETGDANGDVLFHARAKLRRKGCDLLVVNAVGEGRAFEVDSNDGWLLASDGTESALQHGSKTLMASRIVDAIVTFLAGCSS

Plasmodium falciparum = assay: Calibr Malaria Delayed Death Assay SOP; assay type: functional, organism-based

Sequence of Tryptophan--tRNA ligase (P9WFT3 whole entry): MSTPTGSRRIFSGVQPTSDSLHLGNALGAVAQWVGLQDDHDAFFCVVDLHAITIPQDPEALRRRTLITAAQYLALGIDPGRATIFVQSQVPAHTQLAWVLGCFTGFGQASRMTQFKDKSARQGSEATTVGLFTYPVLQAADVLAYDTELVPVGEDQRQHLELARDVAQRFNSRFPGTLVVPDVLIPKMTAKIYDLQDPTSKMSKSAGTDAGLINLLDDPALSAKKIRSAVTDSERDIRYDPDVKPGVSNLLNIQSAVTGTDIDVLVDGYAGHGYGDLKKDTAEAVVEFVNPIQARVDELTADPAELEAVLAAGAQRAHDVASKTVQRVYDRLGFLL
Sequence of Chromo domain-containing protein 1 (P32657 whole entry, the tested form may be a part): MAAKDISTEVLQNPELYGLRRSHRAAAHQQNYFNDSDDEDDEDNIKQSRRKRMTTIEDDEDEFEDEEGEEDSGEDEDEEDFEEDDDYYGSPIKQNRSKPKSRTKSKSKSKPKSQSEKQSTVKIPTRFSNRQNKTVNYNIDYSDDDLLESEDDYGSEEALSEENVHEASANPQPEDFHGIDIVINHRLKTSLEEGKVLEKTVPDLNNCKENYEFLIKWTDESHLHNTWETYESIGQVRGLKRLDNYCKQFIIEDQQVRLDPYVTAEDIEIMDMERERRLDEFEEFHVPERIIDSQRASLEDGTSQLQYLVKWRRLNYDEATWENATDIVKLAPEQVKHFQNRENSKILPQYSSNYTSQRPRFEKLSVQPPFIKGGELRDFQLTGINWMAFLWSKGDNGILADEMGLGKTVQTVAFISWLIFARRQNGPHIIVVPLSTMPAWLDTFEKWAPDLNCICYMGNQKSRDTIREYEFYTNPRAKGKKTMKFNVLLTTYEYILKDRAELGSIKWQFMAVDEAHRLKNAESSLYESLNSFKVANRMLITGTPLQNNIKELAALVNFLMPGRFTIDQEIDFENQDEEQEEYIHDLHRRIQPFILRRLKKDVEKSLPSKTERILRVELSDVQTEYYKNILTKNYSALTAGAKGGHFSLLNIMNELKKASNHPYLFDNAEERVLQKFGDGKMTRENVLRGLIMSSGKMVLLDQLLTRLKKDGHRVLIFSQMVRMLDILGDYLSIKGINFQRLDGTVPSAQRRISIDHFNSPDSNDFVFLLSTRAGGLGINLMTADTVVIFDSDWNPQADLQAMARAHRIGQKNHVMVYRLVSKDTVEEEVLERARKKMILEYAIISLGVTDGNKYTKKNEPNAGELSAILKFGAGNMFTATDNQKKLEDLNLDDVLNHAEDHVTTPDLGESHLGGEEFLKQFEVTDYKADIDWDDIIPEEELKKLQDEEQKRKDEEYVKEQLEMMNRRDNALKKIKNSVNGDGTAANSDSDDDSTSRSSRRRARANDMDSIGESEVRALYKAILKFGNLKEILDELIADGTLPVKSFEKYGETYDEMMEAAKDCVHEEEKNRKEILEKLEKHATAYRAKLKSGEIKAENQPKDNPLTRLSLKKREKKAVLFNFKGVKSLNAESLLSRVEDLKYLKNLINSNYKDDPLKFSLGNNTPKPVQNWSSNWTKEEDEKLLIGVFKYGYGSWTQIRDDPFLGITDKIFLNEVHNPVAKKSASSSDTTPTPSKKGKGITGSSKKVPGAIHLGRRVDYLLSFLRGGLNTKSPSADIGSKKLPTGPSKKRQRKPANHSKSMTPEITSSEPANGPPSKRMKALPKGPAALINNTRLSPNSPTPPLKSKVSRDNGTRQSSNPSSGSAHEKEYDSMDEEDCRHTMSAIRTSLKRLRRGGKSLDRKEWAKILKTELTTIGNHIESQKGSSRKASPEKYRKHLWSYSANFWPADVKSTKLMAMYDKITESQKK
Sequence of ClpP1P2 (P9WPC5 whole entry): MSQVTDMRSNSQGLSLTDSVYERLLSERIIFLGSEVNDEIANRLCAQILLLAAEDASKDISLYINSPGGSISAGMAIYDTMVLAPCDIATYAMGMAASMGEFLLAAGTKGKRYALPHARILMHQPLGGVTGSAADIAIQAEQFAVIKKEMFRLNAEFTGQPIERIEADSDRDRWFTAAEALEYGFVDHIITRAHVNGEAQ
Sequence of ClpP1P2 (P9WPC3 whole entry): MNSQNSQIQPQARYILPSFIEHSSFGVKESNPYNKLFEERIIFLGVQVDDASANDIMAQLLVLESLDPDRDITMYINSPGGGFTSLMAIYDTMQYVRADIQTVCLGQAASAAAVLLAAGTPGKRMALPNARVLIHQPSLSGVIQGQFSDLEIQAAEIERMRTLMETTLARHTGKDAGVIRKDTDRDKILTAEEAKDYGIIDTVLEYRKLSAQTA
Sequence of Sialic acid-binding Ig-like lectin 9 (Q9Y336 whole entry): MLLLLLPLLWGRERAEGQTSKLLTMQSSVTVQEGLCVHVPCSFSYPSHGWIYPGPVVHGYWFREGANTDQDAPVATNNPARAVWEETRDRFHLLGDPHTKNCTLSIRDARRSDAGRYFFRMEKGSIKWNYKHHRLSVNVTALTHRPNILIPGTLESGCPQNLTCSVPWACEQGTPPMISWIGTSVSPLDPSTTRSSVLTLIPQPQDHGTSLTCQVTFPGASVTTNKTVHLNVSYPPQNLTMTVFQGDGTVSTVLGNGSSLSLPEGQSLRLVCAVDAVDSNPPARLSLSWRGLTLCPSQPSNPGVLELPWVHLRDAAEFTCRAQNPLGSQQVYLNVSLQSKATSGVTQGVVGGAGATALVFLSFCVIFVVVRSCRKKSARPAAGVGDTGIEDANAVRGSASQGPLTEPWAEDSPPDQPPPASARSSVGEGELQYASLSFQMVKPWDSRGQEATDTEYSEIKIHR

Row | Compound | IC50 [1] | Percent Effect (Schistosoma mansoni) [%] | other results
1 | Cc1ccccc1CC(C)NCc1c(C)nn(C)c1N1CCOCC1.Cl (stereo not drawn) | > 29.5 µM | 7.535 | 
2 | O=C(NCC(O)c1ccccc1Cl)c1cccc(-n2cnnn2)c1 (stereo not drawn) | > 29.5 µM | -46.05 | 
3 | O=C(Cn1cc(-c2ccccc2)ncc1=O)Nc1nnc[nH]1 | > 29.5 µM |  | IC50 (ClpP1P2): > 100 µM
4 | CSc1ccccc1CN1CCCn2nc(CNC(=O)N(C)C)cc2C1 | > 29.5 µM | -17.72 | 
5 | CN(C)C(C)(C)CNC(=O)C(C)(C)c1ccccc1F | > 29.5 µM | -62.05 | 
6 | CCCN(CC(=O)NC)C(=O)c1ccc(-c2ccsc2)nc1C | > 29.5 µM | -8.65 | 
7 | Cc1cc(CN(C)C(=O)NC(C)c2nncn2C)no1 (stereo not drawn) | > 29.5 µM | 0.6145 | 
8 | CCOc1ncccc1NC(=O)c1cc2c(s1)CCC2 | > 29.5 µM | -62.61 | 
9 | Cc1cnc(CNc2c(F)cccc2-n2cccn2)o1 | > 29.5 µM | -41.52 | 
10 | O=C(CN1CCc2ccccc21)Nc1ccc(OC(F)F)cc1 | > 29.5 µM | 42 | IC50 (Tryptophan--tRNA ligase): > 195 µM
11 | CCc1cnc(CN(C)C2CCN(CCc3ccccn3)C2)o1 (stereo not drawn) | > 29.5 µM | -35.57 | 
12 | COc1ccc(C)cc1S(=O)(=O)NCC(c1cccn1C)N(C)C (stereo not drawn) | > 29.5 µM | -44.63 | 
13 | CSCC(CCO)NC(=O)Nc1cc(Br)ccc1C (stereo not drawn) | > 29.5 µM | -20.66 | 
14 | COc1ncccc1C(=O)Nc1nc2c(s1)CN(S(=O)(=O)C1CC1)CC2 | > 29.5 µM | -71.23 | 
15 | COc1ccc(C[C@H]2CN(c3nnc(C)s3)CC[C@@H]2OC)cc1.O=C(O)C(F)(F)F | > 29.5 µM |  | IC50 [2]: > 50.1 µM; pIC50 (Wolbachia pipientis): 5.531; IC50 (Wolbachia pipientis; Wolbachia pipientis): 3.58 µM; IC50 [3]: 24.7 µM
16 | O=C(Cn1cc(-c2ccccc2)ncc1=O)Nc1ccncc1 | > 29.5 µM |  | IC50 (ClpP1P2): > 100 µM
17 | CC(c1cccnc1)N(C)Cc1csc(-c2ccccn2)n1 (stereo not drawn) | > 29.5 µM | -97.18 | 
18 | Nc1ncc2c(n1)CN(C1CCCC1)C2=O | > 29.5 µM |  | IC50 [2]: 16.8 µM; IC50 [3]: 20.4 µM
19 | COc1ccccc1CN(C)C(=O)c1cc(CN2CCC(O)CC2)on1 | > 29.5 µM | -57.63 | 
20 | NC(=O)C1CCN(C(=O)c2cccc(CN3CCOCC3)c2)CC1 | > 29.5 µM | 38.13 | 
21 | CCn1ccnc1-c1nc2cc(S(=O)(=O)N3CCCC3)ccc2n1C | > 29.5 µM | -59.51 | 
22 | O=C1CC(c2ccco2)c2sc(C(=O)O)c(-c3ccccc3)c2N1 (stereo not drawn) | 20.8 µM and 21.6 µM |  | IC50 [4]: > 30.2 µM; IC50 (Histidine--tRNA ligase): 17.3 µM and 12.6 µM; IC50 [5]: > 30.2 µM; IC50 (ClpP1P2): > 100 µM
23 | Cc1noc([C@@H]2CCCN2C(=O)C2CCN(C(=O)C3CCC3)CC2)n1 | > 29.5 µM | 8.394 | 
24 | OCC1CCCCN1c1ccc(-c2nc(-c3ccccc3F)no2)cn1 (stereo not drawn) | > 29.5 µM |  | pIC50 (Plasmodium falciparum): 7.272 and 6.795
25 | Cc1cccc(NC(=O)Cn2ncc(SCC(N)=O)c(Cl)c2=O)c1C | > 29.5 µM | 40.97 | 

Row | Compound | IC50 [1] | Percent Effect (Schistosoma mansoni) [%] | other results
26 | CC(NC(=O)c1cc(Br)c2c(c1)OCCO2)C(N)=O (stereo not drawn) | > 29.5 µM |  | 
27 | CN1CCN(c2ncc3c(=O)n(-c4cccc(F)c4)c(=O)[nH]c3n2)CC1 | > 29.5 µM |  | 
28 | O=C(Nc1cccc(CN2CCOC2=O)c1)N1CCSCC1 | > 29.5 µM | -6.059 | 
29 | CCCN1CCCn2nc(CNS(=O)(=O)c3cccc(C#N)c3)cc2C1 | > 29.5 µM |  | 
30 | c1ncn(CC2CCCCN2Cc2csc(C3CCCC3)n2)n1 (stereo not drawn) | > 29.5 µM |  | 
31 | COC(=O)c1ccc2ccn(CC3CCCO3)c(=O)c2c1 (stereo not drawn) | > 29.5 µM | -62.88 | 
32 | Cc1cnn(CC2CCCN2CC(=O)N(C)CCC#N)c1 (stereo not drawn) | > 29.5 µM |  | 
33 | CC(=O)c1cccc(NC(=O)Cn2cc(I)cn2)c1 | > 29.5 µM |  | 
34 | CC(C)NC(=O)c1nnn(-c2cccc(C(F)(F)F)c2)c1C1CC1 | > 29.5 µM | -32.68 | 
35 | Cc1cnn(C2CN(CC(O)c3ccc(F)cc3)C2)c1 (stereo not drawn) | > 29.5 µM |  | 
36 | CC(NC(=O)CCCOc1ccccc1Cl)c1ccncc1 (stereo not drawn) | > 29.5 µM | -74.47 | 
37 | CN(C)CC1(O)CCN(S(=O)(=O)c2ccc(F)cc2)C1 (stereo not drawn) | > 29.5 µM |  | 
38 | CN(C)c1ccc(CNc2cncc(-n3cccn3)n2)cc1 | > 29.5 µM |  | 
39 | Cn1ccc(NC(=O)Cc2cccc(F)c2)n1 | > 29.5 µM |  | 
40 | O=C1CSC(c2ccsc2)c2sccc2N1 (stereo not drawn) | > 29.5 µM |  | 
41 | CCNC(=O)CCN1CCC(c2cc(N3CCOCC3)nc(C)n2)CC1 | > 29.5 µM |  | 
42 | Cc1cc(C(=O)N2CCCCC2c2nc(C)cs2)[nH]n1 (stereo not drawn) | > 29.5 µM |  | 
43 | CSCCC(=O)N1CCCC1c1ccsc1 (stereo not drawn) | > 29.5 µM | -17.9 | IC50 (Tryptophan--tRNA ligase): > 195 µM
44 | Cc1cccc(CN2CCC3(CCCN(C(=O)c4ccsc4)C3)C2=O)n1 (stereo not drawn) | > 29.5 µM |  | 
45 | CS(=O)(=O)NCc1cc2n(n1)CCCN(Cc1cccc(C#N)c1)C2 | > 29.5 µM |  | 
46 | Cc1cc(NC(=O)NCCc2ccsc2)n(C)n1 | > 29.5 µM | 10.29 | IC50 (Tryptophan--tRNA ligase): > 195 µM
47 | CCc1c(C)nn(CCNC(=O)C2CCCN(C(=O)N(C)C)C2)c1C (stereo not drawn) | > 29.5 µM |  | 
48 | CN(C(=O)C1CCCCC1)[C@@H]1CCC[C@@H](N2CCOCC2)[C@@H]1O | > 29.5 µM |  | 
49 | COc1ccc(CNC(=O)C2(C#N)CCCC2)cc1 | > 29.5 µM | -106.9 | IC50 (Tryptophan--tRNA ligase): > 195 µM
50 | CC(=O)NCCc1ccc(S(=O)(=O)N(CC(C)C)C(C)C)s1 | > 29.5 µM | 41.16 | 

Row | Compound | IC50 [1] | Percent Effect (Schistosoma mansoni) [%] | other results
51 | O=C(c1csc(Br)c1)N1CCCC(n2ccnc2)C1 (stereo not drawn) | > 29.5 µM |  | 
52 | CN(C)C(CNC(=O)c1cc2c([nH]c1=O)CCCC2=O)c1ccsc1 (stereo not drawn) | > 29.5 µM |  | 
53 | NCC1(c2cccc(C(F)(F)F)c2)CCOCC1 | > 29.5 µM |  | 
54 | O=C(NC1CC1)[C@H]1C[C@H]2OCC[C@H]2N(CC2CCOCC2)C1 | > 29.5 µM |  | 
55 | CNS(=O)(=O)c1cccc(CNC(=O)c2c(C)oc(C)c2C)c1 | > 29.5 µM |  | 
56 | c1cn(Cc2nnc(C3CCN(c4nccs4)CC3)n2C2CC2)cn1 | > 29.5 µM |  | 
57 | COc1ccc(NC(=O)CCC2CCCN(Cc3ncon3)C2)cc1Cl (stereo not drawn) | > 29.5 µM |  | 
58 | O=C(Cn1c(=O)nc2n1C(=O)N(c1ccccc1)C2)Nc1ccccc1 | > 29.5 µM |  | 
59 | O=C(NS(=O)(=O)c1ccccc1Cl)c1cccc2c1OCCO2 | > 29.5 µM | -35.61 | 
60 | O=C(NCc1ccco1)[C@H]1C[C@H]2OCC[C@H]2N(C(=O)c2ccco2)C1 | > 29.5 µM |  | 
61 | CN(C)Cc1ccc(C2CCCCN2C(=O)c2cccc(CO)n2)cc1 (stereo not drawn) | > 29.5 µM |  | 
62 | CC(C)CN1C[C@H]2CCN(c3ncccn3)CC[C@H]2S1(=O)=O | > 29.5 µM |  | 
63 | Cc1nc(CN2CCCC(CCc3c(F)cccc3F)C2)c[nH]1 (stereo not drawn) | > 29.5 µM |  | 
64 | Cc1nn(C)c(C)c1NC(=O)CCn1ncc2c(C)cccc21 | > 29.5 µM |  | 
65 | Cc1ccc(S(=O)(=O)NCCNC(=O)c2ccoc2)cc1F | > 29.5 µM |  | 
66 | CNc1cc(N2CCCC2CNCc2ccc(Cl)o2)ncn1 (stereo not drawn) | > 29.5 µM |  | 
67 | CCS(=O)(=O)Nc1ccn(Cc2cccc(Cl)c2)n1 | > 29.5 µM |  | 
68 | CNC(=O)C1CCC(NC(=O)N(C)Cc2c(C)noc2C)CC1 (stereo not drawn) | > 29.5 µM |  | 
69 | N#Cc1cn(CC(=O)NC2CC2)c2ccc(Br)cc2c1=O | > 29.5 µM |  | 
70 | CNC(=O)COc1ccccc1CNC1CCc2ncnn2C1 (stereo not drawn) | > 29.5 µM |  | 
71 | Cc1cc(NC(=O)Cn2cc(C#N)c(=O)c3cc(Br)ccc32)no1 | > 29.5 µM and 25.6 µM |  | 
72 | COc1ccc(C(=O)C2CCCN(CCCn3cccn3)C2)c(OC)c1 (stereo not drawn) | > 29.5 µM |  | 
73 | CC(C)COCc1cncc2c1CCN(Cc1cnn(C)c1)C2 | > 29.5 µM |  | 
